Consider ten compounds from US8754226B2, “Piperidinyl-substituted lactams as GPR119 modulators” (Array BioPharma Inc., priority 2010, dated 2014).

This experiment has as its system modified version of the GPR119 receptor (94% identity to human receptor). Briefly: cAMP production assay (LANCE cAMP kit, TR-FRET) in HEK-293 cells. In kind it is cell-based. Conditions: for cAMP production in HEK-293 cells: HEK-293 cells stably expressing modified GPR119, test compounds 0.2 nM to 10 μM, one-hour incubation at ambient temperature; for Fold over baseline: increase in cAMP relative to basal levels, agonist activity if 1.5-fold or greater. On the procedure:
The assay utilized HEK-293 cells that stably express a modified version of the GPR119 receptor (94% identity to human receptor), under the control of a CMV promoter containing a tet-on element for tetracycline-inducible expression. GPR119 agonist-induced cyclic AMP (cAMP) production was measured in this cell line using the LANCE cAMP kit (Perkin Elmer, Waltham, Mass.). To generate a working stock of cells for the assay, cells were treated overnight with 1 μg/mL doxycycline at 37° C. in the presence of 5% CO2 to induce receptor expression. Cells were then harvested by enzymatic dissociation with 0.05% trypsin, resuspended in freezing medium (DMEM growth medium with 10% each of fetal bovine serum and DMSO), aliquoted and frozen at −80° C. On the day of the assay, frozen cells were thawed, washed 1× in PBS and resuspended in Hank's buffered salt solution (HBSS) containing 5 mM HEPES, 0.1% BSA and Alexa Fluor 647-conjugated anti-cAMP antibody (diluted 1:100). The cell suspension was then transferred to a Proxiplate Plus white 384-well assay plate (Perkin-Elmer) at 2000 cells/well. Test compounds at final concentrations ranging from 0.2 nM to 10 μM were added to the assay plate, followed by a one-hour incubation at ambient temperature (volume=10 μL/well). DMSO concentration was held constant at 0.5%. After incubation with test compounds, 10 μL of a detergent buffer containing a biotinylated cAMP/Europium-conjugated streptavidin complex (Europium-labeled cAMP tracer) were added to each well on the assay plate, followed by a 2-hour incubation at ambient temperature. During this incubation cAMP released from lysed cells competes with the Europium-labeled cAMP tracer for binding to the Alexa Fluor 647-conjugated antibody. […] Cellular cAMP levels were then determined by interpolation of raw signal data using a cAMP standard curve. Compounds were determined to have agonist activity if they stimulated a 1.5-fold or greater increase in cAMP relative to basal levels.

Take `Cc1cc(N[C@H]2CCN(C3CCN(c4cnc(Cl)cn4)CC3)C2=O)cnc1S(C)(=O)=O` (stereo in doubt) [Example 135, 1-(1-(5-chloropyrazin-2-yl)piperidin-4-yl)-3-(5-methyl-6-(methylsulfonyl)pyridin-3-ylamino)pyrrolidin-2-one]: the “cAMP production in HEK-293 cells” value amounted to 31.0 nmol and the Fold over baseline is 6.6.

For `Cc1cc(N[C@H]2CCN(C3CCN(c4cnc(Cl)cn4)CC3)C2=O)c(F)cc1S(C)(=O)=O` [Example 1, (S)-1-(1-(5-chloropyrazin-2-yl)piperidin-4-yl)-3-(2-fluoro-5-methyl-4-(methylsulfonyl)phenylamino)pyrrolidin-2-one], the “cAMP production in HEK-293 cells” value worked out at 23.5 nmol and the Fold over baseline is recorded as 3.9.

Turning to `CCc1cnc(N2CCC(N3CC[C@H](Nc4cc(C)c(S(C)(=O)=O)cc4F)C3=O)CC2)cn1` [Example 2, (S)-1-(1-(5-ethylpyrazin-2-yl)piperidin-4-yl)-3-(2-fluoro-5-methyl-4-(methylsulfonyl)phenylamino)pyrrolidin-2-one], the “cAMP production in HEK-293 cells” value amounted to 27.9 nmol and the Fold over baseline was 4.8.

On to `CS(=O)(=O)c1cc(F)c(N[C@H]2CCN(C3CCN(c4cnc(Cl)cn4)CC3)C2=O)cc1F` [Example 3, (S)-1-(1-(5-chloropyrazin-2-yl)piperidin-4-yl)-3-(2,5-difluoro-4-(methylsulfonyl)phenylamino)pyrrolidin-2-one], for which the “cAMP production in HEK-293 cells” value was 23.2 nmol and the Fold over baseline was found to be 5.0.

For the compound `CS(=O)(=O)c1ccc(N[C@H]2CCN(C3CCN(c4cnc(Cl)cn4)CC3)C2=O)c(F)c1` [Example 4, (S)-1-(1-(5-chloropyrazin-2-yl)piperidin-4-yl)-3-(2-fluoro-4-(methylsulfonyl)phenylamino)pyrrolidin-2-one], the “cAMP production in HEK-293 cells” value stood at 27.3 nmol and the Fold over baseline is given as 4.1.

For `CCc1cnc(N2CCC(N3CC[C@H](Nc4cc(F)c(S(C)(=O)=O)cc4F)C3=O)CC2)nc1` [Example 5, (S)-3-(2,5-difluoro-4-(methyl-sulfonyl)phenylamino)-1-(1-(5-ethylpyrimidin-2-yl)piperidin-4-yl)pyrrolidin-2-one], the “cAMP production in HEK-293 cells” value turned out to be 12.3 nmol and the Fold over baseline was found to be 2.2.

As to `CS(=O)(=O)c1cc(F)c(N[C@H]2CCN(C3CCN(c4ncc(Cl)cn4)CC3)C2=O)cc1F` [Example 6, (S)-3-(2,5-difluoro-4-(methyl-sulfonyl)phenylamino)-1-(1-(5-chloropyrimidin-2-yl)piperidin-4-yl)pyrrolidin-2-one], the “cAMP production in HEK-293 cells” value amounted to 9.2 nmol and the Fold over baseline amounted to 1.8.

With `CS(=O)(=O)c1ccc(N[C@H]2CCN(C3CCN(c4ncc(Br)cn4)CC3)C2=O)c(F)c1` [Example 7, (S)-1-(1-(5-bromopyrimidin-2-yl)piperidin-4-yl)-3-(2-fluoro-4-(methylsulfonyl)phenylamino)pyrrolidin-2-one], the “cAMP production in HEK-293 cells” value stood at 7.7 nmol and the Fold over baseline is reported as 2.4.

For `CS(=O)(=O)c1ccc(N[C@H]2CCN(C3CCN(c4ncc(C#N)cn4)CC3)C2=O)c(F)c1` [Example 8, (S)-2-(4-(3-(2-fluoro-4-(methylsulfonyl)phenylamino)-2-oxopyrrolidin-1-yl)piperidin-1-yl)pyrimidine-5-carbonitrile], the “cAMP production in HEK-293 cells” value amounted to 8.6 nmol and the Fold over baseline is reported as 2.5.

Take `CS(=O)(=O)c1ccc(N[C@H]2CCN(C3CCN(c4ncc(-c5ccccc5)cn4)CC3)C2=O)c(F)c1` [Example 9, (S)-3-(2-fluoro-4-(methyl-sulfonyl)phenylamino)-1-(1-(5-phenylpyrimidin-2-yl)piperidin-4-yl)pyrrolidin-2-one]: the “cAMP production in HEK-293 cells” value was 13.5 nmol and the Fold over baseline stood at 2.3.
